ChEMBL document CHEMBL6103565, “Current strategies in design and synthesis of antifungals hybrid and chimeric diazine derivatives” (Bioorg Med Chem, 2025)
Converted amounts (≈) assume the structure as drawn.

How the values were obtained:
[1] = test system: Aspergillus niger; assay: Antifungal activity against Aspergillus niger ATCC 16404 assessed as inhibition of mycelial growth relative to control; format: functional
[2] = test system: Candida albicans; assay: Antifungal activity against Candida albicans ATCC 10231 assessed as inhibition of mycelial growth relative to control; format: functional
[3] = test system: Candida albicans; assay: Antifungal activity against Candida albicans NRRL-Y477 assessed as zone of inhibition by disc diffusion method; format: functional
[4] = test system: Candida albicans; assay: Antifungal activity against Candida albicans ATCC 10231 assessed as zone of inhibition incubated for 24 hrs by disc diffusion method; format: functional
[5] = test system: Candida albicans; assay: Antifungal activity against Candida albicans assessed as fungal growth inhibition; format: functional
[6] = test system: Aspergillus flavus; assay: Antifungal activity against Aspergillus flavus ATCC 20046 assessed as reduction in fungal growth incubated ofr 48 hrs by CLSI micro-dilution method; format: functional
[7] = test system: Fusarium solani; assay: Antifungal activity against Fusarium solani ATCC 20327 assessed as reduction in fungal growth incubated ofr 48 hrs by CLSI micro-dilution method; format: functional
[8] = test system: Penicillium chrysogenum; assay: Antifungal activity against Penicillium chrysogenum ATCC 20044 assessed as reduction in fungal growth incubated ofr 48 hrs by CLSI micro-dilution method; format: functional
[9] = test system: Penicillium frequentans; assay: Antifungal activity against Penicillium frequentans ATCC 10110 assessed as reduction in fungal growth incubated ofr 48 hrs by CLSI micro-dilution method; format: functional
[10] = test system: Alternaria alternata; assay: Antifungal activity against Alternaria alternata ATCC 8741 assessed as reduction in fungal growth incubated ofr 48 hrs by CLSI micro-dilution method; format: functional
[11] = test system: Candida albicans; assay: Antifungal activity against Candida albicans RCMB 005036 assessed as diameter of zone inhibition; format: functional
[12] = test system: Aspergillus fumigatus; assay: Antifungal activity against Aspergillus fumigatus RCMB 002568 assessed as diameter of zone inhibition; format: functional
[13] = test system: Candida albicans; assay: Antifungal activity against Candida albicans MTCC 227 by disc diffusion method; format: functional, organism-based
[14] = test system: Aspergillus niger; assay: Antifungal activity against Aspergillus niger MTCC 282 by disc diffusion method; format: functional, organism-based
[15] = test system: Aspergillus niger; assay: Antifungal activity against Aspergillus niger MTCC 282 assessed as reduction in microbial growth after 48 hrs by broth dilution method; format: functional
[16] = test system: Aspergillus clavatus; assay: Antifungal activity against Aspergillus […] MTCC 1323 assessed as reduction in microbial growth after 48 hrs by broth dilution method; format: functional
[17] = test system: Candida albicans; assay: Antifungal activity against Candida albicans MTCC 227 assessed as reduction in microbial growth after 48 hrs by broth dilution method; format: functional
[18] = test system: Aspergillus fumigatus; assay: Antifungal activity against Aspergillus fumigatus assessed as reduction in fungal growth incubated for 20 to 24 hrs by CLSI based micro-dilution analysis; format: functional; settings: time 20-24 hrs
[19] = test system: Candida albicans; assay: Antifungal activity against Candida albicans ATCC 90028 assessed as reduction in microbial growth; format: functional
[20] = test system: Nakaseomyces glabratus; assay: Antifungal activity against Candida glabrata ATCC 90030 assessed as reduction in microbial growth; format: functional
[21] = test system: Candida tropicalis; assay: Antifungal activity against Candida tropicalis ATCC 750 assessed as reduction in microbial growth; format: functional
[22] = test system: Nakaseomyces glabratus; assay: Antifungal activity against Candida glabrata ATCC 90030 assessed as diameter of zone of inhibition; format: functional
[23] = test system: Candida tropicalis; assay: Antifungal activity against Candida tropicalis ATCC 750 assessed as diameter of zone of inhibition; format: functional
[24] = test system: Candida albicans; assay: Antifungal activity against Candida albicans ATCC 90028 assessed as diameter of zone of inhibition; format: functional
[25] = test system: Sclerotinia sclerotiorum; assay: Fungicidal activity against Sclerotinia sclerotiorum assessed as fungal inhibitory rate at 200 ug/ml relative to control; format: functional
[26] = test system: Fusarium graminearum; assay: Fungicidal activity against Gibberella zeae assessed as fungal inhibitory rate at 200 ug/ml relative to control; format: functional
[27] = test system: Botryosphaeria dothidea; assay: Fungicidal activity against Botryosphaeria dothidea assessed as fungal inhibitory rate at 200 ug/ml relative to control; format: functional
[28] = test system: Candida albicans; assay: Antifungal activity against Candida albicans ATCC 10231; format: functional
[29] = test system: Pichia kudriavzevii; assay: Antifungal activity against Candida krusei ATCC 6258; format: functional
[30] = test system: Candida parapsilosis; assay: Antifungal activity against Candida parapsilosis ATCC 22019; format: functional; settings: Lodderomyces parapsilosis
[31] = test system: Nakaseomyces glabratus; assay: Antifungal activity against Candida glabrata ATCC 90030; format: functional
[32] = test system: Candida albicans; assay: Antimicrobial activity against Candida albicans ATCC 64124 assessed as reduction in microbial growth by CLSI protocol based micro-broth dilution method; format: functional
[33] = test system: Aspergillus flavus; assay: Antimicrobial activity against Aspergillus flavus assessed as zone of inhibition; format: functional
[34] = test system: Aspergillus niger; assay: Antifungal activity against Aspergillus niger assessed as zone of inhibition by disc diffusion method; format: functional
[35] = test system: Cryptococcus neoformans; assay: Antifungal activity against Cryptococcus neoformans assessed as reduction in fungal growth incubated for 24 hrs by broth microdilution method; format: functional
[36] = test system: Syncephalastrum racemosum; assay: Antifungal activity against Syncephalastrum racemosum assessed as zone of inhibition; format: functional
[37] = test system: Aspergillus fumigatus; assay: Antifungal activity against Aspergillus fumigatus assessed as zone of inhibition; format: functional
[38] = test system: Candida albicans; assay: Antifungal activity against azole-resistant Candida albicans ATCC 18804 assessed as fungal growth inhibition incubated for 24 hrs by CLSI protocol based broth microdilution method; format: functional
[39] = test system: Candida albicans; assay: Antifungal activity against azole-resistant Candida albicans ATCC 10231 assessed as fungal growth inhibition incubated for 24 hrs by CLSI protocol based broth microdilution method; format: functional
[40] = test system: Candida albicans; assay: Antifungal activity against azole-resistant Candida albicans ATCC 18804 assessed as reduction in fungal growth by XTT assay; format: functional
[41] = test system: Candida albicans; assay: Antifungal activity against azole-resistant Candida albicans ATCC 10231 assessed as reduction in fungal growth by XTT assay; format: functional
[42] = test system: Aspergillus fumigatus; assay: Antifungal activity against Aspergillus fumigatus assessed as reduction in fungal growth incubated for 72 hrs by agar well diffusion method; format: functional
[43] = test system: Candida albicans; assay: Antifungal activity against Candida albicans assessed as reduction in fungal growth incubated for 72 hrs by agar well diffusion method; format: functional

With `C[C@@H]1[C@H](O)[C@@H](C)/C=C/C=C/CC/C=C/C=C/C=C/C=C/[C@H](O[C@@H]2O[C@H](C)[C@@H](O)[C@H](N)[C@@H]2O)C[C@@H]2O[C@](O)(C[C@@H](O)[C@H](O)CC[C@@H](O)C[C@@H](O)C[C@@H](O)CC(=O)O[C@H]1C)C[C@H](O)[C@H]2C(=O)O` the “inhibition (INH)” value [1] was 66%, the “inhibition (INH)” value [2] was 63% and the “inhibition zone (IZ)” value [3] was 23 mm. The “inhibition zone (IZ)” value [4] was 26 mm and the MIC [5] was 1 µg/mL (≈ 1.08 µM).

`CCC(C)CC(C)CCCCCCCCC(=O)N[C@H]1C[C@@H](O)[C@@H](NCCN)NC(=O)[C@@H]2[C@@H](O)CCN2C(=O)[C@H]([C@H](O)CCN)NC(=O)[C@H]([C@H](O)[C@@H](O)c2ccc(O)cc2)NC(=O)[C@@H]2C[C@@H](O)CN2C(=O)[C@H]([C@@H](C)O)NC1=O` (some centres not stated) showed an MIC [6] of 0.25 µg/mL (≈ 0.229 µM), an MIC [7] of 0.25 µg/mL (≈ 0.229 µM) and an MIC [8] of 0.25 µg/mL (≈ 0.229 µM). For the same compound, the MIC [9] was 0.25 µg/mL (≈ 0.229 µM) and the MIC [10] was 0.25 µg/mL (≈ 0.229 µM).

`COC(=O)COc1cccc(OCC(=O)OC)c1C(=O)C[n+]1cc2ccccc2cn1.[Br-]` gave an MIC [5] of 1.25 µg/mL.

For `COc1ccc(NC(=O)c2nn(-c3ccccc3)c(=N)c(C#N)c2C)cc1`, the “inhibition zone (IZ)” value [11] was 26 mm and the “inhibition zone (IZ)” value [12] was 20 mm.

In the case of `CC(=O)N1N=C(C2=C(C)NC(=O)NC2c2ccc(F)cc2)OC1c1ccc([N+](=O)[O-])cc1` (configuration not stated), the EC50 [13] is reported as 0.14 µg/mL (≈ 0.319 µM), the EC50 [14] is reported as 0.14 µg/mL (≈ 0.319 µM) and the MIC [15] is reported as 50 µg/mL. For the same compound, the MIC [16] was 50 µg/mL and the MIC [17] was 100 µg/mL.

In the case of `Cc1ccc(-c2ccc(=O)n(CC3=C(Cn4nc(-c5ccc(C)cc5)ccc4=O)[C@]4(C)CCCC(C)(C)C4=CC3=O)n2)cc1`, the MIC [6] is reported as 5 µg/mL (≈ 8.52 µM), the MIC [7] is reported as 5 µg/mL (≈ 8.52 µM) and the MIC [8] is reported as 5 µg/mL (≈ 8.52 µM). For the same compound, the MIC [9] was 5 µg/mL (≈ 8.52 µM) and the MIC [10] was 5 µg/mL (≈ 8.52 µM).

`OC[C@H]1O[C@@H](Sc2nnc(Cc3ccc4ccc5cccc6ccc3c4c56)c3ccccc23)[C@H](O)[C@H]1O` was tested, and the MIC [18] was 17 µg/mL (≈ 33.4 µM).

Compound `Cc1ccc(C2C3=C(N=C4SC=CN42)[C@@]2(C)CC[C@H]4[C@@H](CC=C5C[C@@H](O)CC[C@@]54C)[C@@H]2C3)cc1` (some centres not stated) has an MIC [19] of 700 µg/mL, an MIC [20] greater than 1000 µg/mL and an MIC [21] greater than 1000 µg/mL. For the same compound, the “inhibition zone (IZ)” value [22] was 15 mm, the “inhibition zone (IZ)” value [23] was 15 mm and the “inhibition zone (IZ)” value [24] was 13 mm.

For `Cc1ncc(NC(=O)c2cc(Cl)nn2-c2ncccc2Cl)c(-c2noc(C)n2)n1`, the inhibition at 200 µg/mL [25] was 54.1%, the inhibition at 200 µg/mL [26] was 54.9% and the inhibition at 200 µg/mL [27] was 85.9%.

`CC(=O)N1CCN(c2ccc(OC[C@H]3CO[C@](Cn4ccnc4)(c4ccc(Cl)cc4Cl)O3)cc2)CC1` showed an MIC50 [28] of 0.78 µg/mL (≈ 1.47 µM), an MIC [29] of 0.78 µg/mL (≈ 1.47 µM) and an MIC [30] of 0.78 µg/mL (≈ 1.47 µM). The MIC [31] was 0.78 µg/mL (≈ 1.47 µM), the MIC [18] was 18 µg/mL (≈ 33.9 µM) and the “inhibition zone (IZ)” value [11] was 25 mm. The “inhibition zone (IZ)” value [12] was 23 mm.

In the case of `C[C@@H]1[C@H](O)[C@@H](C)/C=C/C=C/C=C/C=C/C=C/C=C/C=C/[C@H](O[C@@H]2O[C@H](C)[C@@H](O)[C@H](N)[C@@H]2O)C[C@@H]2O[C@](O)(C[C@@H](O)C[C@@H](O)[C@H](O)CC[C@@H](O)C[C@@H](O)CC(=O)O[C@H]1C)C[C@H](O)[C@H]2C(=O)O` [AMPHOTERICIN B], the MIC [32] is reported as 1 µg/mL, the “inhibition zone (IZ)” value [33] is reported as 15 mm and the “inhibition zone (IZ)” value [34] is reported as 17 mm. For the same compound, the MIC [35] was 0.39 µg/mL (≈ 0.422 µM), the “inhibition zone (IZ)” value [36] was 20 mm and the “inhibition zone (IZ)” value [37] was 24 mm. The MIC [38] was 0.2 µg/mL (≈ 0.216 µM), the MIC [39] was 1.9 µg/mL (≈ 2.06 µM) and the MIC [40] was 0.2 µg/mL (≈ 0.216 µM). For the same compound, the MIC [41] was 1.9 µg/mL (≈ 2.06 µM), the MIC [42] was 1.95 µg/mL (≈ 2.11 µM) and the MIC [43] was 3.9 µg/mL (≈ 4.22 µM).
